The subject of assay [1] is calcium level of the blood. The assay is described as follows: calcium level of the blood in patients with increased bone turn over. The assay is classed as in vivo, human. To be noted: intravenous, intramuscular or subcutaneous injection of 0.01 to 5 mg, e.g. in 0.1 molar acetate buffer of pH 4.6.
The next assay has as its system blood calcium level. The assay is described as follows: rat test described by Kumar et al, J. Endocrinology 33, page 470 [1965] (MRC units). The assay is classed as in vivo. To be noted: for result in the rat test according to Kumar et al., in words: compared with HT-C2 / parent peptide. From the text: It lowers the plasma calcium level and plasma phosphate level of the blood of mammals, as can be shown by tests on rats weighing 50 to 150 g. […] It may therefore be used for the treatment of hypercalcaemiae and of bone diseases such as Paget's disease or osteoporosis.

Ends that are not written are not given here.

For Human calcitonin, in assay [1], the “calcium level of the blood” value is on record as “lowers”.

Consider “HT-C1 sulfoxide: sulfoxide obtained from HT-C1 with 5% hydrogenperoxide (CGNLSTCMLGTYTQDFNKFHTFPQTAIGVGAP; ends and bridges not checked; also: dimer (HT-C1, dimer of HT-C2); UniProt P01258 85-116, looked up)”, for which the “result in the rat test according to Kumar et al., in words” value with blood calcium level is “equally active”.

As for “HT-C1: the dimer of HT-C2; active component of human calcitonin (CGNLSTCMLGTYTQDFNKFHTFPQTAIGVGAP; ends and bridges not checked; also: dimer; UniProt P01258 85-116, looked up)”, the “result in the rat test according to Kumar et al., in words” value in the assay on blood calcium level was “about as good results as the product obtained in Example 1 (HT-C2)”.

In the case of “HT-C11: active component of human calcitonin from fractions with K=4.0 (CGNLSTCMLGTYTQDFNKFHTFPQTAIGVGAP; ends and bridges not checked; cysteine pairing not given here; UniProt P01258 85-116, looked up)”, the activity in the assay with blood calcium level (in the rat, per mg of peptide) was 100-200 MRC units per mg.

The record behind these values is patent publication USRE32347E, “Hypocalcaemic peptides and process for their manufacture” (Ciba-Geigy Corp., priority 1984, dated 1987).
